The values below come from article PMC8784342, “Investigation of sugar binding kinetics of the E. coli sugar/H^+ symporter XylE using solid-supported membrane-based electrophysiology” (The Journal of Biological Chemistry, 2021).

“And” between values parts separate entries of the source, which are not always exact repeats. Identical values can stand only once.

In one data set the target is wt XylE (Escherichia coli, UniProt P0AGF4). Put plainly: biochemical. Further details: made in house; host or cells: E. coli BL21 DE3. How it is done: (§1) Reconstitution of purified proteins (2–20 mg/ml) was carried out with E. coli phospholipids (Avanti Polar Lipids, E. coli polar lipid extract). Preformed liposomes (0.2–2 ml, 10 mg/ml) were dissolved in 1% (w/v) n-octyl-β-D-glucoside, and the protein suspension was mixed on ice to a concentration of 0.2 mg protein/mg lipid (LPR 5).
Chain of wt XylE (P0AGF4 whole entry): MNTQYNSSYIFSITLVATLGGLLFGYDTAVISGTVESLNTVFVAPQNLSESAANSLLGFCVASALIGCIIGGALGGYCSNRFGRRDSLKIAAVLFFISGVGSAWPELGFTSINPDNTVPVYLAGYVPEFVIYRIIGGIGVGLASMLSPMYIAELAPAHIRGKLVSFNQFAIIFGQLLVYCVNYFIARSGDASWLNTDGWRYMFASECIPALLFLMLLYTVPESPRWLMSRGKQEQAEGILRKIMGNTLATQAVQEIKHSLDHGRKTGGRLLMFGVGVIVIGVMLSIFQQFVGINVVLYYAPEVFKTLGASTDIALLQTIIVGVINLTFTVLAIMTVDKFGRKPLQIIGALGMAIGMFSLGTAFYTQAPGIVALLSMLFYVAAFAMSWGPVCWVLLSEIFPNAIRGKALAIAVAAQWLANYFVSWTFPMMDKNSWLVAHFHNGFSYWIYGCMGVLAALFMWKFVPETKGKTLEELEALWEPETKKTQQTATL
(§2) Wt XylE, wt FucP, and the mutant proteins were reconstituted using overnight incubation in 400 mg/ml BioBeads (SM-2 Adsorbent Media, Bio-Rad) at 4 °C. After reconstitution, the samples were diluted to 2.5 mg/ml lipid concentration, frozen in liquid nitrogen, and stored at −80 °C. For wt LacY and mutant proteins, this procedure was not successful. We, therefore, applied the previously established n-octyl-β-D-glucoside dilution method (1:100) ([69]).
(§3) SSM measurements were performed as described ([20], [23]). After thawing the sample and sonication in a water bath, 30 μl of proteoliposomes (2.5 mg/ml lipid at LPR 5) was allowed to adsorb for 1 to 2 h to an octadecanethiol/phosphatidylcholine hybrid bilayer on a gold surface (the sensor).
(§4) For measurements, a single solution exchange configuration ([23]) was employed that consisted in three phases of 0.5 s duration each: Flow of nonactivating solution (NA), activating solution (A), and nonactivating solution (NA). Only the activating solution contained the sugar. When pH dependence is determined, pH of NA and A solutions during one experiment are kept constant. Between experiments using different pH values, the sensor was incubated at the new pH for 3 min to equilibrate the intraliposomal pH.
(§5) Instruments with different time resolution were used as required. […] Currents were recorded throughout the entire time and amplified with a current amplifier set to a gain of […] and a rise time of 10 ms (low time-resolution set up) or 3 ms (high time-resolution set up).
(§6) All NA solutions were buffered in 100 mM KPi at a given pH value. NA solutions used with LacY contained 1 mM DTT in addition. A solutions were made from NA solutions by adding the respective sugar at a given concentration to induce the symport reaction. Sugar concentration jumps initiated sugar-proton symport, and charge transfer was measured by capacitive coupling. Therefore, only transient currents were recorded.
(§7) Each dataset represented with error bars was generated by performing the same experiment on multiple sensors (n ≥ 3). Error bars represent standard deviations of the average value. When peak currents are averaged across sensors, datasets are normalized before averaging. When the protein catalyzes transport and PSS currents are negligible, the peak current of the transient represents a good approximation of the current generated by the steady-state symport activity of the transporter. In most cases, peak currents have been used to derive kinetic and thermodynamic parameters according to the equations given in Figure 2 (KM, Imax ∼ Vmax, Hill coefficient n), Figure 4 (KD and rate constants for sugar binding kon and release koff), and Figure 6 (pKa for proton binding and pKb for proton release). Reconstruction of transporter currents for analysis of biphasic currents has been performed as described previously ([70]). This is required when transport and PSS currents are observed at the same time.

The next data set has as its target T1, D46N FucP (Escherichia coli, UniProt P11551, D46N).
T1 construct: made in house; host or cells: E. coli BL21 DE3
Briefly: SSM-based electrophysiology, transport-deficient mutant D46N FucP (PSS currents). It is filed as biochemical. How it is done: as §1, §2, §3, §4, §5, §6, §7

The target of data set [1] is T2, wt LacY (Escherichia coli, UniProt P02920).
T2 construct: made in house; host or cells: E. coli XL1-Blue
T2 sequence (P02920 1-417): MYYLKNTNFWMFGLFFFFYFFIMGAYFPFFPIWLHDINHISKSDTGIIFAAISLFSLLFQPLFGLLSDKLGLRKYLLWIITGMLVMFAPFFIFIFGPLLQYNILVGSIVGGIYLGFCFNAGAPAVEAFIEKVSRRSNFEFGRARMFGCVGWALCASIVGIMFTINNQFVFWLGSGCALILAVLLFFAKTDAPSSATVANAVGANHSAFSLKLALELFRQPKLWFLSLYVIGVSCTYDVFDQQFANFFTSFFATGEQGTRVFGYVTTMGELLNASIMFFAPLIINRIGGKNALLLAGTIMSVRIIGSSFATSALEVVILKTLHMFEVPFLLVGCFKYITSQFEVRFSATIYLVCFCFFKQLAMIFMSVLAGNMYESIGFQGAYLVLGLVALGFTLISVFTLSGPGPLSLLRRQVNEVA
Put plainly: SSM-based electrophysiology, proteoliposomes with wt LacY. The following applies: pH 5.0; 100 mM substrate. The data set is classed as biochemical. How it is done:
as §1, §2, §3, §4, §5, §6, §7

A further data set deals with LacY. The following applies: cited from earlier work.
The target in data set [2] is T2, wt LacY. As to conditions: pH 7.6, main substrate, cited from earlier work.
The target in a further data set is single-Cys LacY. Further details: method as in PMID 7918438, PMID 15304639. As to conditions: read-out: KD, protection against labeling; cited from earlier work.
In another data set the target is T3, E325A LacY (Escherichia coli, UniProt P02920, E325A).
T3 construct: made in house; host or cells: E. coli XL1-Blue
T3 sequence (P02920 whole entry E325A): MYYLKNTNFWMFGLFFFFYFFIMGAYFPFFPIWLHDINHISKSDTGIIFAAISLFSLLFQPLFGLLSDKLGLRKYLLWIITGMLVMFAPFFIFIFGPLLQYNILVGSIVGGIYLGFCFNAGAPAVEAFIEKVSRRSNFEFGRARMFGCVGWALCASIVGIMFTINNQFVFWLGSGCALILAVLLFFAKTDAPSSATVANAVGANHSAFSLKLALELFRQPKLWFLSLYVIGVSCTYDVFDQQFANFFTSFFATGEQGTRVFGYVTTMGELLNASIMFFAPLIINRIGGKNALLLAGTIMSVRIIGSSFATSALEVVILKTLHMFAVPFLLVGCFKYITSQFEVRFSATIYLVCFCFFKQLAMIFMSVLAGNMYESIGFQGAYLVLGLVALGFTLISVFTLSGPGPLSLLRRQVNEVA
Put plainly: SSM-based electrophysiology, transport-deficient mutant E325A LacY (PSS currents, electrogenic binding). It is filed as biochemical. How it is done: as §1, §2, §3, §4, §5, §6, §7

The next data set deals with T4, Q175I/L297F XylE (Escherichia coli, UniProt P0AGF4, L297F/Q175I).
T4 construct: made in house; host or cells: E. coli BL21 DE3
T4 sequence (P0AGF4 whole entry Q175I/L297F): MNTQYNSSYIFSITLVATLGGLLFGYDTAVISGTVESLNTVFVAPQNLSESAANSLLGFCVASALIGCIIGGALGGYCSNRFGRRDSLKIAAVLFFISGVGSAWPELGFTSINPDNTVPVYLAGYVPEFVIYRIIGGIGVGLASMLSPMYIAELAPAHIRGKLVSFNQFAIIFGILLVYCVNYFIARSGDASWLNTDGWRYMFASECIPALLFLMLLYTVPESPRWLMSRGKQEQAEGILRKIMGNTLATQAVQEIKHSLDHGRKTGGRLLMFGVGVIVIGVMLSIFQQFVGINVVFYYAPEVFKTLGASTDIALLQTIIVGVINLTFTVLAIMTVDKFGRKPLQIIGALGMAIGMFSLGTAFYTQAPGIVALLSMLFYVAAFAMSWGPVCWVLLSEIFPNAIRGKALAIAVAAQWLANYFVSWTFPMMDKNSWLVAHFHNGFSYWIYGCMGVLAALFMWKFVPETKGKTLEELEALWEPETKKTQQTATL
Briefly: biochemical. How it is done:
as §1
Wt XylE, wt FucP, and the mutant proteins were reconstituted using overnight incubation in 400 mg/ml BioBeads (SM-2 Adsorbent Media, Bio-Rad) at 4 °C. After reconstitution, the samples were diluted to 2.5 mg/ml lipid concentration, frozen in liquid nitrogen, and stored at −80 °C. […] We, therefore, applied the previously established n-octyl-β-D-glucoside dilution method (1:100) ([69]).
as §3, §4, §5, §6, §7

Data set [3] has as its system XylE. As to conditions: uptake and competition-uptake assays; cited from earlier work.
Another data set deals with T5, D27N XylE (Escherichia coli, UniProt P0AGF4, D27N).
T5 construct: made in house; host or cells: E. coli BL21 DE3
T5 sequence (P0AGF4 whole entry D27N): as the sequence (P0AGF4 whole entry Q175I/L297F) above, with D27N, I175Q, F297L counted along it
Briefly: SSM-based electrophysiology, transport-deficient mutant D27N XylE (PSS currents, electrogenic binding). It is filed as biochemical. How it is done:
as §1, §2, §3, §4, §5, §6, §7

The target in data set [4] is XylE. Further details: method as in PMID 23075985. As to conditions: read-out: KD, isothermal titration calorimetry; cited from earlier work. In general terms: ITC needs no label: the signal is the heat of the interaction.
Setting [5] is: reconstructed transporter currents, alkaline range, double titration.

T1 sequence (P11551 whole entry D46N): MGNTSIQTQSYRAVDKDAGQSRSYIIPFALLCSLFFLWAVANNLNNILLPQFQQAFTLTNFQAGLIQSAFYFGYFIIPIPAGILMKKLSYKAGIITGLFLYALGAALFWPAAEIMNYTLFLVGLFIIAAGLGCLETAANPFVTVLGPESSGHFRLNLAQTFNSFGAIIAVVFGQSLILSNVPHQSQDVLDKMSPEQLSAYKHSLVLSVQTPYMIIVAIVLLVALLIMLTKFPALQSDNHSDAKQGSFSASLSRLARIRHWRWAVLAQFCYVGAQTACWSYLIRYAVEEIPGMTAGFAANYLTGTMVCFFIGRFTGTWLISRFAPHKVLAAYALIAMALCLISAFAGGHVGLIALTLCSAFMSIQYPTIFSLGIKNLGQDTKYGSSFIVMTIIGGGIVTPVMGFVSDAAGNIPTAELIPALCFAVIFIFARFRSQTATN

One may read the Km as the concentration of substrate that gives half-maximal velocity. On to 6-Deoxy-D-glucose, for which the “induction of currents (substrate identification)” value at wt XylE (pH 7.0) is reported as “generated signals identifying them as substrates”. At wt XylE (pH 7.6), the “Imax in percent of Imax of the main substrate (D-xylose)” value is recorded as 35 ± 5%. Besides, on wt XylE (pH 7.6, minor substrate, peak currents, low time-resolution set up, read-out: KM (mM) Michaelis–Menten equation), the Michaelis constant (Km) was 0.2 ± 0.05 mM.
For `O[C@@H]1[C@@H](O)[C@@H](O)CO[C@H]1O` [L-arabinose], the “induction of PSS currents” value at D46N FucP is listed as “do not generate PSS currents”.
In the case of `OC[C@H]1O[C@@H](O[C@H]2[C@H](O)[C@@H](O)[C@H](O)O[C@@H]2CO)[C@H](O)[C@@H](O)[C@H]1O` [D-lactose], at wt LacY [1], the “Q (pC) wt, PSS transferred charge” value is recorded as 2.6 ± 0.6 (pH 5.0) pC. In addition, in the data set with LacY, the transport rate was 30 to 50 s⁻¹. In addition, the Michaelis constant (Km) is 500 to 3000 µM in the data set on LacY (radioactively labeled sugars, read-out: KM, literature) and 5.3 ± 0.5 mM on wt LacY [2] (read-out: KM (mM) Michaelis–Menten equation). Moreover, at wt LacY [2], the Imax was 0.7 ± 0.2 nA. In addition, the Kd is 1000 to 10000 µM at single-Cys LacY and 20000 ± 3000 µM at E325A LacY. Further, the “Q (pC) Mut, transferred charge” value on E325A LacY (pH 7.6, saturating substrate (100 mM D-lactose, lactulose; 5 mM TDG)) is listed as 3.1 ± 1.8 (pH 7.6) pC. On E325A LacY (saturating substrate (100 mM D-lactose, lactulose; 5 mM TDG), kobs = 1/τ, limited by time resolution), the “kobs (s^−1) mut” value was determined as 260 ± 60 s⁻¹.
On to `OC[C@@H]1OC(O)[C@H](O)[C@@H](O)[C@@H]1O` (stereo partly drawn) [L-idose], for which, at wt XylE (pH 7.0), the “induction of currents (substrate identification)” value was “generated signals identifying them as substrates”.
What is called pKa is the negative logarithm of the acid dissociation constant. Read a high pKa as a group that holds its proton tightly. The EC50 is the concentration that produces a half-maximal response. For the compound `OC[C@H]1OC(O)[C@H](O)[C@@H](O)[C@@H]1O` (stereo partly drawn) [D-glucose], the “induction of PSS currents” value on D46N FucP is “do not generate PSS currents”. Moreover, the “IPeak (pA) fast component” value at Q175I/L297F XylE (pH 7.6, saturating substrate) is 240 pA and 240 ± 40 pA; at D27N XylE (pH 7.6, saturating substrate), 60 pA and 60 ± 25 pA; on wt XylE (pH 7.6, saturating substrate, transport current given as upper limit), <470 pA. The pKa is 4.6 ± 0.1 at Q175I/L297F XylE (reconstructed transporter currents, acidic range) and 4.7 ± 0.1 on wt XylE (pH-dependent peak currents, acidic range). Also, the pKb1 at Q175I/L297F XylE (setting [5]) was ~7.5 and 7.3 ± 0.1. The compound also came in with a pKb2 on Q175I/L297F XylE (setting [5]) of 9.8 ± 0.2. Further, the “transport of radioactively labeled sugar” value with XylE [3] is on record as “not transported”. Further, the Kd on D27N XylE (KD (mM) mut, pH 7.6, hyperbolic fit of peak currents, in Table 3 headed EC50) is 1.9 ± 0.35 mM; on D27N XylE (KD from fit of concentration-dependent kobs, pH 7.6), 0.67 ± 0.1 mM; on XylE [4] it was 770 µM. In addition, the “Imax (nA) slow component” value is <0.05 nA on D27N XylE (pH 7.6) and 0.47 ± 0.1 nA at wt XylE (pH 7.6, hyperbolic fit of peak current). Besides, at D27N XylE (pH 7.6, 30 mM substrate), the “Q (pC) Mut, transferred charge” value is 1.1 ± 0.3 (pH 7.6) pC. Moreover, the “kobs (s^−1) mut” value at D27N XylE (saturating substrate (30 mM), kobs = 1/τ, monoexponential fit, limited by time resolution) was determined as 300 ± 40 s⁻¹. Further, the Kb on wt XylE was 0.0398 nM. The EC50 on wt XylE (EC50,1, double Michaelis–Menten fit, pH 7.6, peak currents) was 160 ± 10 µM; at wt XylE (EC50,2, double Michaelis–Menten fit, pH 7.6, peak currents), 6500 ± 900 µM; on wt XylE (EC50, Hill fit, pH 7.6, peak currents, Hill equation) it was 920 ± 120 µM; at wt XylE (apparent EC50 (half saturation constant, Michaelis–Menten equation; KM column), pH 7.6, D-glucose-induced slow PSS current, not transport), 380 µM and 400 µM. In addition, the “Q (pC) wt, PSS transferred charge” value at wt XylE (pH 3.0, 30 mM substrate) is 2.5 ± 1 (pH 3.0) pC. The “slow peak current amplitude compared with D-xylose-induced currents” value at wt XylE (pH 7.0) was determined as 26%. Moreover, the “Imax in percent of Imax of the main substrate (D-xylose)” value at wt XylE (pH 7.6) was 26% and 26 ± 5%. Further, the “n (Hill coefficient)” value at wt XylE (pH 7.6, peak currents, Hill equation) is reported as 0.57 ± 0.03.
